Here are results for one substance from paper PMC5793121 (Toxins, 2018).

Values joined by “and” are separate entries in the source; they are usually repeats but may differ in a detail not shown here. Identical values can stand only once. “Also recorded” adds a separate entry of the source. No end group written: not given here.

Data set [1] deals with male ICR mice. In words: in vivo. The method, then: (§1) Az acute toxicity was estimated for its intravenous (iv) and intramuscular (im) administration to male ICR mice in a stepwise procedure.
(§2) For the iv route of administration, 20 mice were randomly divided in 5 groups of 4 animals each. The animals of each group received a single dose of Az (0.3, 0.4, 0.5, 0.6, or 0.7 mg/kg, respectively) injected into the lateral tail vein at a volume of 1 mL/kg. For the im route of administration, first two experimental groups of 3 animals each were formed. Az at doses of 0.75 and 1.0 mg/kg, respectively, was injected into the quadriceps muscle of the thigh (quadriceps femoris muscle) of two mouse hind limbs at a volume of 0.5 mL/kg to each muscle. Then, five experimental groups of 5 animals each were formed. Az was injected into the quadriceps muscle of the thigh (quadriceps femoris muscle) of the two hind limbs of male ICR mice at doses of 0.8, 0.775, 0.75, 0.725 and 0.7 mg/kg. The injection volume to each limb was 1 mL/kg. Further, neurotoxic manifestations were recorded in animals at 5, 10, 20, 30, 60 and 90 min and 24 h after administration using the functional observation battery, the number of death was counted as well.
(§3) For the iv and im route of administration, the median lethal dose (LD50) was calculated using a probit analysis. For the im route of administration, the maximum tolerated dose was determined.
(§4) Rocuronium was administered intramuscularly at doses of 0.13 mg/kg (n = 1), 0.1 mg/kg (n = 4) and 0.08 mg/kg (n = 4) in the triceps of the forelimbs of male ICR mice (8–9 weeks old). Control animals were injected with saline (n = 4). The volume of administration was 0.5 mL/kg in each limb.

A further data set in a line: in vivo. To be noted: male, ICR, mouse, in vivo. The method, then:
as §1, §2, §3, §4

In data set [2] the test system is male ICR mice. The class given is in vivo, mouse. To be noted: 7-day im 0.15 and 0.5 mg/kg. As to the method:
For carrying out these experiments 90 male ICR mice were used, they were divided equally into three groups (30 animals per group) for each study and in these groups they were subdivided into subgroups of 10 mice each and treated as follows: mice of the first subgroup were injected with normal saline im, the second subgroup animals were treated with Az (0.15 mg/kg im) and the animals of the third subgroup were treated with Az (0.50 mg/kg im). The drugs were injected into the quadriceps muscle of the thigh (musculus quadriceps femoris) daily for seven days (1 mL/kg).
On the last 7th day of the Az administration, the mice of the second group (30 animals) were immunized intraperitoneally with a 1:1 mixture of 200 μL of bovine serum albumin (BSA, 0.5 mg/mL) with a complete Freund’s adjuvant. 10 days after the 1st immunization, the mice received the second 200 μL ip injection of the antigen (BSA, 0.5 mg/mL) in an incomplete Freund’s adjuvant (1:1 ratio).

In data set [3] the test system is human muscle-type nAChR fetal form α1β1γδ. To be noted: Xenopus oocytes; cited from earlier work.
Another data set concerns human α7 nAChR. To be noted: cited from earlier work.
Data set [4] deals with T1, human neuronal homopentameric α7 nAChR (Homo sapiens, UniProt P36544).
T1 construct: expressed in transfected cells; host or cells: mouse neuroblastoma Neuro2a, transient transfection (α7 nAChR-pCEP4) with human Ric-3 (Ric3-pCMV6-XL5, OriGene)
As to the kind of experiment: Calcium imaging of ACh-evoked [Ca2+]i rise in Neuro2a cells expressing α7 nAChR. The class given is cell-based. The settings on record: 10 μM ACh (EC50); transfected Neuro2a cells, PNU120596 10 μM; 15 min preincubation; mean ± SEM, 4 independent experiments; read-out: IC50, inhibition of ACh-evoked calcium response of α7 nAChR. The method, then:
Mouse neuroblastoma Neuro2a cells were purchased from the Russian collection of cell cultures (Institute of Cytology, Russian Academy of Sciences, Saint Petersburg, Russia). Cells were cultured in DMEM (Paneco, Moscow, Russia) supplemented with 10% FBS. They were sub-cultured the day before transfection and were plated at a density of 10,000 cells per well in a 96-well black plate. On the next day Neuro2a cells were transiently transfected with plasmids coding mouse muscle α1β1δε nAChR (pRBG4-vector) and a fluorescent calcium sensor Case12 (pCase12-cyto vector, Evrogen, Moscow, Russia) in a molar ratio of 2:1 following a lipofectamine transfection protocol (ThermoFisher Scientific, Waltham, MA, USA). […]
The plates were transferred to the multimodal microplate reader Hidex Sence (Hidex, Turku, Finland) where the cells were excited by light of 485 nm wavelength and emitted fluorescence was detected at 535 ± 10 nm. Fluorescence was recorded every 2 s for three minutes following agonist addition. Responses were measured as peak intensity minus basal fluorescence level and were expressed as a percentage of the maximal response obtained to agonist. Data files were analyzed using Hidex Sence software (Hidex, Turku, Finland) and OriginPro 7.5 software (OriginLab, Northampton, MA, USA, for statistical analysis).

Data set [5] relates to human neuronal heteromeric α3-containing nAChRs (α3β2, α3β4, etc.). The class given is cell-based.

T1 sequence (P36544 23-502): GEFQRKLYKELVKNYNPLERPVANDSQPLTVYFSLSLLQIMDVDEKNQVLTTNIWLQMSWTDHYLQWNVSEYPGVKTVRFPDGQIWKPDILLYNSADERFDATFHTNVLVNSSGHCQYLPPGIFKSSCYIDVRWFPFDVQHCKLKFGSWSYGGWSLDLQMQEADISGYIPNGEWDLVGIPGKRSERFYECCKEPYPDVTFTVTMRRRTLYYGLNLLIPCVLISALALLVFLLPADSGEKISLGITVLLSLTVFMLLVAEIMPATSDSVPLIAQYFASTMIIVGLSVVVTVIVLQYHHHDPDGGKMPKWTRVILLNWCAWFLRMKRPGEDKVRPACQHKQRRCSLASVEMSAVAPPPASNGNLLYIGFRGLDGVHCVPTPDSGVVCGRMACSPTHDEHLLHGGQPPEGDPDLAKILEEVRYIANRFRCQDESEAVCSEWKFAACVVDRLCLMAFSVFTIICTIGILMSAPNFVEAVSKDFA

As a reminder, the LD50 is the dose expected to kill half of the subjects tested. High values mean lower toxicity, low ones greater toxicity. Broadly, the IC50 is the concentration that inhibits the measured activity by half. Take “DNWWPKPPHQGPRPPRPRPKP-NH2 [Az, azemiopsin]”: the “time of death after administration” value with male ICR mice [1] (im 0.725 mg/kg) turned out to be 19.7 ± 5.9 min; with male ICR mice [1] (im 0.75 mg/kg) it was 28.8 ± 16.0 min; in the data set with male ICR mice [1] (im 0.775 mg/kg) it was 15.8 ± 4.3 min; in the data set with male ICR mice [1] (im 0.8 mg/kg), 12.2 ± 1.8 min. The toxicity signs result with male ICR mice [1] (im dose of 0.3 mg/kg and lower (grip strength tests)) was “No toxicity signs”. The “time of appearance of visible toxic signs after administration” value in the data set with male ICR mice [1] (im, large doses) is 5 to 7 min. Further, the “time of complete recovery from the toxic effect after administration” value in the data set with male ICR mice [1] (im, large doses) turned out to be 24 h. This substance registered an LD50 in the data set on male ICR mice [1] (intravenous administration, male ICR mice, probit analysis) of 0.51 ± 0.06 mg/kg. Also, the LD50 at 24 h is 0.732 ± 0.13 mg/kg in the data set “in vivo” (im) and 0.51 mg/kg in “in vivo” (iv). This substance also registered an MTD at 24 h in the data set “in vivo” (im) of 0.7 mg/kg. The “immune response to BSA (IgG titers in blood serum)” value with male ICR mice [2] is “did not demonstrate any significant difference”. Besides, the IC50 in data set [3] was 1560 ± 370 nM; in the data set on human α7 nAChR, 22000 ± 2000 nM; in data set [4], 2670 nM and ~3000 nM. Further, the “activity against α3-containing nAChRs (nicotine-evoked calcium responses)” value in data set [5] was “no Az activity; also recorded: no effect”.
